The results in this text go back to US20230058961A1, “SUBSTITUTED HETEROCYCLICS WITH THERAPEUTIC ACTIVITY IN HIV” (New York Blood Center, Inc., priority 2019, published 2023).

Data set [1] has as its system pseudovirus HIV-1 HXB2. Briefly: organism not typed. The conditions noted are these: anti-HIV-1 activity, single-cycle assay, TZM-bl cells, pseudovirus HIV-1 HXB2; read-out: IC50. Type of data set: cell-based.
In data set [2] the test system is TZM-bl cells. The conditions noted are these: human, 3 days.
Protocol: (§1) The anti-HIV-1 activity was assessed in a single-cycle assay by infecting TZM-bl indicator cells with the pseudovirus HIV-1 HXB2 according to established procedures (F. Curreli, Y. D. Kwon, D. S. Belov, R. R. Ramesh, A. V. Kurkin, A. Altieri, P. D. Kwong, A. K. Debnath, J Med Chem 2017, 60, 3124-3153; which is incorporated herein by reference for all that it teaches about the conduct and interpretation of the assay).
(§2) The cytotoxicity of the small polycyclic molecules in TZM-bl cells was determined by using the colorimetric method CellTiter 96® AQueous One Solution Cell Proliferation Assay (MTS) (Promega) following the manufacturer's instructions. Briefly, TZM-bl cells were platted in a 96-well tissue culture plate at 1×10^4/well and cultured at 37° C. Following overnight incubation, the cells were incubated with 100 μl of the compounds at graded concentrations and cultured for 3 days. The MTS reagent was added to the cells and incubated for 4 h at 37° C. The absorbance was recorded at 490 nm.
Data set [3] is described as follows: in vitro. The conditions noted are these: human, CC50.
Protocol: as §1, §2
For data set [4], the system named is panel of HIV-1 Env Pseudoviruses (49 clones of clinical isolates, subtypes A, B, C, D, Arec). Type of data set: cell-based. The conditions noted are these: 49 HIV-1 clones of clinical isolates.

`NCC(NC(=O)c1ccc(-c2ccc(C(F)(F)F)cn2)[nH]1)c1nc(CCCO)cs1` (stereo not shown) [Compound 27, N-(2-Amino-1-(4-(3-hydroxypropyl)thiazol-2-yl)ethyl)-5-(5-(trifluoromethyl)pyridin-2-yl)-1H-pyrrole-2-carboxamide]: in data set [1], the IC50 was 2.3 ± 0.3 µM. This molecule also returned a CC50 in data set [2] of more than 114 µM. This molecule also displayed a CC50 at 3 days in data set [3] of more than 100 µM.

As for `Cc1cc(-c2ccc(C(F)(F)F)cn2)[nH]c1C(=O)NC(CN)c1nc(CO)cs1` (stereo not shown) [Compound 33, N-(2-Amino-1-(4-(hydroxymethyl)thiazol-2-yl)ethyl)-3-methyl-5-(5-(trifluoromethyl)pyridin-2-yl)-1H-pyrrole-2-carboxamide], the “anti-HIV-1 activity against panel of HIV-1 Env pseudotypes (in words)” value in data set [4] is “sub-micromolar”. Moreover, the CC50 at 3 days in data set [3] worked out at 85 ± 3 µM.

`Cc1cc(-c2ccc(C(F)(F)F)cn2)[nH]c1C(=O)NC(CN)c1ncc(CO)s1` (stereo not shown) [Compound 8, N-(2-amino-1-(5-(hydroxymethyl)thiazol-2-yl)ethyl)-3-methyl-5-(5-(trifluoromethyl)pyridin-2-yl)-1H-pyrrole-2-carboxamide]: in data set [4], the “anti-HIV-1 activity against panel of HIV-1 Env pseudotypes (in words)” value is reported as “sub-micromolar”. Further, the CC50 in data set [2] amounted to 109 ± 2 µM.

For orientation: IC50 means the concentration at which inhibition is half-maximal.
